# Laboratory results taken from PubChem BioAssay AID2060905 (Molecular Pharmacology Branch, DTP, NCI, 2025).
# Tested on: 282377-053-R-J1-PDC complex spheroid viability
# Assay: Anticancer human tumor 282377-053-R-J1-PDC patient-derived colon adenocarcinoma cell line growth inhibition [RAS]
# Details: for viability, T/C: stronger effect = lower value
# Method in brief: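 Multi-cell-type spheroids: tumor cells plus HUVEC endothelial cells and mesenchymal stem cells. RAS-pathway inhibitors were combined with targeted agents, each dosed in half-log steps down from clinical Cmax, or from 10 microM when Cmax was unknown.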
# [1] = curve of first compound, second compound 0.000949 µM
# [2] = curve of first compound, second compound 0.003 µM
# [3] = curve of first compound, second compound 0.00949 µM
# [4] = curve of first compound, second compound 0.03 µM
# [5] = curve of first compound, second compound 0.0949 µM
# [6] = curve of first compound, second compound 0.3 µM
# [7] = second compound 0.000949 µM, first compound 0.0316 µM
# [8] = second compound 0.000949 µM, first compound 0.1 µM
# [9] = second compound 0.000949 µM, first compound 0.316 µM
# [10] = second compound 0.000949 µM, first compound 1 µM
# [11] = second compound 0.000949 µM, first compound 3.16 µM
# [12] = second compound 0.000949 µM, first compound 10 µM
# [13] = second compound 0.003 µM, first compound 0.0316 µM
# [14] = second compound 0.003 µM, first compound 0.1 µM
# [15] = second compound 0.003 µM, first compound 0.316 µM
# [16] = second compound 0.003 µM, first compound 1 µM
# [17] = second compound 0.003 µM, first compound 3.16 µM
# [18] = second compound 0.003 µM, first compound 10 µM
# [19] = second compound 0.00949 µM, first compound 0.0316 µM
# [20] = second compound 0.00949 µM, first compound 0.1 µM
# [21] = second compound 0.00949 µM, first compound 0.316 µM
# [22] = second compound 0.00949 µM, first compound 1 µM
# [23] = second compound 0.00949 µM, first compound 3.16 µM
# [24] = second compound 0.00949 µM, first compound 10 µM
# [25] = second compound 0.03 µM, first compound 0.0316 µM
# [26] = second compound 0.03 µM, first compound 0.1 µM
# [27] = second compound 0.03 µM, first compound 0.316 µM
# [28] = second compound 0.03 µM, first compound 1 µM
# [29] = second compound 0.03 µM, first compound 3.16 µM
# [30] = second compound 0.03 µM, first compound 10 µM
# [31] = second compound 0.0949 µM, first compound 0.0316 µM
# [32] = second compound 0.0949 µM, first compound 0.1 µM
# [33] = second compound 0.0949 µM, first compound 0.316 µM
# [34] = second compound 0.0949 µM, first compound 1 µM
# [35] = second compound 0.0949 µM, first compound 3.16 µM
# [36] = second compound 0.0949 µM, first compound 10 µM
# [37] = second compound 0.3 µM, first compound 0.0316 µM
# [38] = second compound 0.3 µM, first compound 0.1 µM
# [39] = second compound 0.3 µM, first compound 0.316 µM
# [40] = second compound 0.3 µM, first compound 1 µM
# [41] = second compound 0.3 µM, first compound 3.16 µM
# [42] = second compound 0.3 µM, first compound 10 µM
# 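Note: spheroids exposed to agents for seven days before readout.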
# 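Throughout, for viability, T/C: luminescence viability as percent of DMSO vehicle control wells.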
compound,measurement,setting,value
C[C@@H](NC(=O)c1ncnc(N)c1Cl)c1ncc(C(=O)Nc2cc(C(F)(F)F)c(Cl)cn2)s1 + CCn1c(-c2cccnc2C(C)OC)c2c3cc(ccc31)N1CCOC(CC(NC(=O)C(C(C)C)N(C)C(=O)C3(F)CCN(C(=O)C#CC(C)(C)N(C)C)CC3)C(=O)N3CCCC(N3)C(=O)OCC(C)(C)C2)C1,IC50,[1],> 10000 nM
same,IC50,[2],> 10000 nM
same,IC50,[3],> 10000 nM
same,IC50,[4],> 10000 nM
same,IC50,[5],> 10000 nM
same,IC50,[6],> 10000 nM
same,"viability, T/C",[7],111%
same,"viability, T/C",[8],118%
same,"viability, T/C",[9],119%
same,"viability, T/C",[10],90.6%
same,"viability, T/C",[11],80.8%
same,"viability, T/C",[12],64.5%
same,"viability, T/C",[13],112%
same,"viability, T/C",[14],92.7%
same,"viability, T/C",[15],99.8%
same,"viability, T/C",[16],82.1%
same,"viability, T/C",[17],63.6%
same,"viability, T/C",[18],57.3%
same,"viability, T/C",[19],93.7%
same,"viability, T/C",[20],89%
same,"viability, T/C",[21],78.5%
same,"viability, T/C",[22],109%
same,"viability, T/C",[23],70.1%
same,"viability, T/C",[24],58.9%
same,"viability, T/C",[25],92.8%
same,"viability, T/C",[26],117%
same,"viability, T/C",[27],91%
same,"viability, T/C",[28],84.3%
same,"viability, T/C",[29],75.8%
same,"viability, T/C",[30],81.1%
same,"viability, T/C",[31],83.2%
same,"viability, T/C",[32],93.6%
same,"viability, T/C",[33],76.5%
same,"viability, T/C",[34],73.1%
same,"viability, T/C",[35],71.8%
same,"viability, T/C",[36],71.3%
same,"viability, T/C",[37],80.7%
same,"viability, T/C",[38],99.1%
same,"viability, T/C",[39],96.8%
same,"viability, T/C",[40],86.2%
same,"viability, T/C",[41],81.4%
same,"viability, T/C",[42],66.9%
C=CC(=O)Nc1cc(Nc2nccc(-c3cn(C)c4ccccc34)n2)c(OC)cc1N(C)CCN(C)C + CCn1c(-c2cc(N3CCN(C)CC3)cnc2C(C)OC)c2c3cc(ccc31)-c1csc(n1)CC(NC(=O)C1CC1C)C(=O)N1CCCC(N1)C(=O)OCC(C)(C)C2,IC50,[1],> 1000 nM
same,IC50,[2],> 1000 nM
same,IC50,[3],> 1000 nM
same,IC50,[4],> 1000 nM
same,IC50,[5],> 1000 nM
same,IC50,[6],> 1000 nM
same,"viability, T/C","second compound 0.000949 µM, first compound 0.00316 µM",96.5%
same,"viability, T/C","second compound 0.000949 µM, first compound 0.01 µM",109%
same,"viability, T/C",[7],78%
same,"viability, T/C",[8],86.9%
same,"viability, T/C",[9],83.4%
same,"viability, T/C",[10],91.6%
same,"viability, T/C","second compound 0.003 µM, first compound 0.00316 µM",87.3%
same,"viability, T/C","second compound 0.003 µM, first compound 0.01 µM",106%
same,"viability, T/C",[13],89.9%
same,"viability, T/C",[14],80.8%
same,"viability, T/C",[15],83.6%
same,"viability, T/C",[16],75.8%
same,"viability, T/C","second compound 0.00949 µM, first compound 0.00316 µM",102%
same,"viability, T/C","second compound 0.00949 µM, first compound 0.01 µM",90.8%
same,"viability, T/C",[19],97.5%
same,"viability, T/C",[20],84.8%
same,"viability, T/C",[21],73.8%
same,"viability, T/C",[22],80.3%
same,"viability, T/C","second compound 0.03 µM, first compound 0.00316 µM",83%
same,"viability, T/C","second compound 0.03 µM, first compound 0.01 µM",97.4%
same,"viability, T/C",[25],116%
same,"viability, T/C",[26],89.9%
same,"viability, T/C",[27],85.6%
same,"viability, T/C",[28],94.4%
same,"viability, T/C","second compound 0.0949 µM, first compound 0.00316 µM",95%
same,"viability, T/C","second compound 0.0949 µM, first compound 0.01 µM",92.5%
same,"viability, T/C",[31],97.8%
same,"viability, T/C",[32],78.6%
same,"viability, T/C",[33],112%
same,"viability, T/C",[34],91.7%
same,"viability, T/C","second compound 0.3 µM, first compound 0.00316 µM",84.9%
same,"viability, T/C","second compound 0.3 µM, first compound 0.01 µM",97.2%
same,"viability, T/C",[37],92%
same,"viability, T/C",[38],97.5%
same,"viability, T/C",[39],98.6%
same,"viability, T/C",[40],138%
CC(=O)OC12COC1CC(O)C1(C)C(=O)C(O)C3=C(C)C(OC(=O)C(O)C(NC(=O)OC(C)(C)C)c4ccccc4)CC(O)(C(OC(=O)c4ccccc4)C21)C3(C)C (stereo unspecified) + CCn1c(-c2cc(N3CCN(C)CC3)cnc2C(C)OC)c2c3cc(ccc31)-c1csc(n1)CC(NC(=O)C1CC1C)C(=O)N1CCCC(N1)C(=O)OCC(C)(C)C2,IC50,[1],< 31.6 nM
same,IC50,[2],< 31.6 nM
same,IC50,[3],< 31.6 nM
same,IC50,[4],< 31.6 nM
same,IC50,[5],< 31.6 nM
same,IC50,[6],< 31.6 nM
same,"viability, T/C",[7],41.2%
same,"viability, T/C",[8],48.6%
same,"viability, T/C",[9],44.2%
same,"viability, T/C",[10],52%
same,"viability, T/C",[11],61%
same,"viability, T/C",[12],97.3%
same,"viability, T/C",[13],50.1%
same,"viability, T/C",[14],38.4%
same,"viability, T/C",[15],45.5%
same,"viability, T/C",[16],55.2%
same,"viability, T/C",[17],52.2%
same,"viability, T/C",[18],83.2%
same,"viability, T/C",[19],50.1%
same,"viability, T/C",[20],42.6%
same,"viability, T/C",[21],52.5%
same,"viability, T/C",[22],38.7%
same,"viability, T/C",[23],72.2%
same,"viability, T/C",[24],91.9%
same,"viability, T/C",[25],36.1%
same,"viability, T/C",[26],46%
same,"viability, T/C",[27],41.9%
same,"viability, T/C",[28],58.2%
same,"viability, T/C",[29],60.5%
same,"viability, T/C",[30],96.2%
same,"viability, T/C",[31],42%
same,"viability, T/C",[32],49.4%
same,"viability, T/C",[33],46.3%
same,"viability, T/C",[34],40.2%
same,"viability, T/C",[35],77.5%
same,"viability, T/C",[36],77.6%
same,"viability, T/C",[37],43.1%
same,"viability, T/C",[38],54.1%
same,"viability, T/C",[39],47.9%
same,"viability, T/C",[40],56.3%
same,"viability, T/C",[41],79.6%
same,"viability, T/C",[42],100%
CCn1c(-c2cccnc2C(C)OC)c2c3cc(ccc31)N1CCOC(CC(NC(=O)C(C(C)C)N(C)C(=O)C3(F)CCN(C(=O)C#CC(C)(C)N(C)C)CC3)C(=O)N3CCCC(N3)C(=O)OCC(C)(C)C2)C1 (stereo unspecified),"viability, T/C",compound 0.000949 µM,98.8% [middle of 8 runs]
same,"viability, T/C",compound 0.00949 µM,104% [middle of 8 runs]
same,"viability, T/C",compound 0.03 µM,102% [middle of 8 runs]
same,"viability, T/C",compound 0.0949 µM,102% [middle of 8 runs]
same,"viability, T/C",compound 0.3 µM,102% [middle of 8 runs]
same,IC50,"compound alone, run of 05/20/2024",> 300 nM
CC1(C)CCC(Nc2ncc(C(F)(F)F)c(-c3c[nH]c4c(P(C)(C)=O)c(C#N)ccc34)n2)CN1 (stereo unspecified),"viability, T/C",compound 0.003 µM,102% [middle of 4 runs]
same,"viability, T/C",compound 0.0949 µM,74.2% [middle of 4 runs]
same,"viability, T/C",compound 0.3 µM,75.7% [middle of 4 runs]
same,IC50,curve of compound,> 300 nM
